# From US20200033346A1, “DIAGNOSTIC AND THERAPEUTIC METHODS FOR KRAS POSITIVE CANCERS” (The Board of Trustees of the Leland Stanford Junior …, priority 2017, published 2020)
# Assays:
# A549 = assay: Cell proliferation upon FASN inhibition (PI assay, hemocytometer cell counting), A549; assay type: cell-based, human; conditions: cerulenin 1-10 μg/mL, FIG. 6A
# Description: (§1) Cell culture. The human non-small cell lung carcinoma cell lines, A549 and H1299, were used for in vitro experiments. A549 cells were maintained in Dulbecco's Modified Eagle Medium (DMEM) supplemented with 10% fetal bovine serum (FBS), 1% L-glutamine, 1% sodium pyruvate, 1% nonessential amino acids, and Antibiotic-Antimycotic. […] Trypsin-EDTA was used to passage both A549 and H1299 cells. All cell culture reagents were purchased from Gibco® (Thermo Fisher Scientific Inc.).
# (§2) Small molecule inhibitors. […] FTS is a synthetic famesylcysteine mimetic which interferes with the anchoring of KRAS to the plasma membrane. […] Various levels of these drugs were administered to cells in culture over a time course in order to assess dose-response relationships.
# (§3) Cell counting. A volume of cells was removed from culture medium and mixed with an equal volume of 0.4% Trypan blue stain. Then 10 μL was taken out and placed into a hemocytometer for cell counting. Viable cell counts were used as a measure of cell proliferation.
# H1299 = assay: Cell proliferation upon FASN inhibition (PI assay, hemocytometer cell counting), H1299; assay type: cell-based, human; conditions: cerulenin 1-10 μg/mL, FIG. 6B
# Description: as §1, §2, §3
# ERK1/2 phospho-isoforms = assay: NIA analysis of ERK isoforms in tumor FNAs of mice with MYC-induced lymphoma; assay type: in vivo, mouse; conditions: FIG. 18
# Description: (§4) Nanoimmunoassay (NIA). NIA was performed using the Nanopro 1000 (Protein Simple) to detect the phosphorylation states of ERK1 and ERK2 in lysates generated from lung tumor tissue. NIA is a highly sensitive capillary-based isoelectric focusing method that uses antibody detection to quantify protein isoforms as well as characterize post-translational protein modifications such as phosphorylation. The final protein concentration loaded into each capillary of the Nanopro 1000 was 0.1 μg/μL. The primary rabbit antibody for ERK1/2 (Millipore) was diluted 1:300 and the primary mouse antibody for the loading control, Hsp70 (Santa Cruz Biosciences), was diluted 1:500. The anti-mouse and anti-rabbit secondary antibodies, conjugated to horse radish peroxidase, were diluted 1:100. Chemiluminescence signal was recorded following the addition of luminol and peroxide detection reagents. Analysis of NIA data was performed in Compass software (Protein Simple).
# Mice with MYC-induced lymphoma were treated with FTS. Tumors from mouse untreated or after 4 days of treatment were sampled by fine needle aspirate. FNAs were flash frozen and batch analyzed. NIA was used to analyze ERK isoforms using NIA.
# [1] = tested on: FASN and SCD gene expression; assay: Real-time PCR of FASN and SCD mRNA in human lung cancer cell lines after inhibitor treatment; assay type: cell-based; conditions: qPCR
# Description: Cell culture. The human non-small cell lung carcinoma cell lines, A549 and H1299, were used for in vitro experiments. A549 cells were maintained in Dulbecco's Modified Eagle Medium (DMEM) supplemented with 10% fetal bovine serum (FBS), 1% L-glutamine, 1% sodium pyruvate, 1% nonessential amino acids, and Antibiotic-Antimycotic. H1299 cells were maintained in RPMI 1640 medium supplemented with 10% FBS, 50 μM β-mercaptoethanol, and Antibiotic-Antimycotic. Trypsin-EDTA was used to passage both A549 and H1299 cells. All cell culture reagents were purchased from Gibco® (Thermo Fisher Scientific Inc.). Small molecule inhibitors. […] FTS is a synthetic famesylcysteine mimetic which interferes with the anchoring of KRAS to the plasma membrane. […] Various levels of these drugs were administered to cells in culture over a time course in order to assess dose-response relationships. RNA extraction and cDNA synthesis. Total RNA was isolated from cells and lung tissue using the QIAGEN RNeasy Mini kit. RNA quality and concentration were assessed by the NanoDrop® spectrophotometer. The RNA was reverse transcribed into cDNA using the SuperScript® III First-Strand Synthesis System (Invitrogen). […] Amplicons were detected by using SYBR® Green I dye as fluorophore. […] For each gene, a threshold cycle (Ct) number, which represents the number of cycles required to reach the threshold fluorescence, was determined. […]
# ERK1/2 phosphorylation = assay: NIA analysis of ERK isoforms in FNAs from transgenic lymphoma; assay type: in vivo, mouse; conditions: Day 4 of FTS treatment, FIG. 22
# Description: as §4
# Tumors were sampled by fine needle aspirate prior to treatment (UnTx), and […] after 1-8 days of treatment with FTS.
# Comparison with dox is shown. Mice were either treated with FTS (BC2FTS) or BCL2 inactivation (BCL2Dox). Tumors were sampled by fine needle aspirate prior to treatment (UnTx), and […] after 1-8 days of treatment with FTS.
# BCL2-induced lymphoma = assay: Tumor growth in mice with BCL2-induced lymphoma; assay type: in vivo, mouse; conditions: RAS inactivation by FTS together with BCL2 inactivation by DOX; FIG. 21
# Description: Inactivation of both BCL2 and Ras inhibits tumor growth more effectively than either oncogene alone: mice with BCL2-induced lymphoma. Plots of tumor area over time in mice cohorts: untreated (UnTx), with BCL2 inactivated (BCL2 off), Ras inactivated (Ras off, or both BCL2 and Ras inactivated (BCL2off,Ras off).
# FASN = FASN (Homo sapiens, UniProt P49327); conditions: background description; cited from earlier work
# Sequence of FASN (P49327 whole entry, species assumed, canonical isoform): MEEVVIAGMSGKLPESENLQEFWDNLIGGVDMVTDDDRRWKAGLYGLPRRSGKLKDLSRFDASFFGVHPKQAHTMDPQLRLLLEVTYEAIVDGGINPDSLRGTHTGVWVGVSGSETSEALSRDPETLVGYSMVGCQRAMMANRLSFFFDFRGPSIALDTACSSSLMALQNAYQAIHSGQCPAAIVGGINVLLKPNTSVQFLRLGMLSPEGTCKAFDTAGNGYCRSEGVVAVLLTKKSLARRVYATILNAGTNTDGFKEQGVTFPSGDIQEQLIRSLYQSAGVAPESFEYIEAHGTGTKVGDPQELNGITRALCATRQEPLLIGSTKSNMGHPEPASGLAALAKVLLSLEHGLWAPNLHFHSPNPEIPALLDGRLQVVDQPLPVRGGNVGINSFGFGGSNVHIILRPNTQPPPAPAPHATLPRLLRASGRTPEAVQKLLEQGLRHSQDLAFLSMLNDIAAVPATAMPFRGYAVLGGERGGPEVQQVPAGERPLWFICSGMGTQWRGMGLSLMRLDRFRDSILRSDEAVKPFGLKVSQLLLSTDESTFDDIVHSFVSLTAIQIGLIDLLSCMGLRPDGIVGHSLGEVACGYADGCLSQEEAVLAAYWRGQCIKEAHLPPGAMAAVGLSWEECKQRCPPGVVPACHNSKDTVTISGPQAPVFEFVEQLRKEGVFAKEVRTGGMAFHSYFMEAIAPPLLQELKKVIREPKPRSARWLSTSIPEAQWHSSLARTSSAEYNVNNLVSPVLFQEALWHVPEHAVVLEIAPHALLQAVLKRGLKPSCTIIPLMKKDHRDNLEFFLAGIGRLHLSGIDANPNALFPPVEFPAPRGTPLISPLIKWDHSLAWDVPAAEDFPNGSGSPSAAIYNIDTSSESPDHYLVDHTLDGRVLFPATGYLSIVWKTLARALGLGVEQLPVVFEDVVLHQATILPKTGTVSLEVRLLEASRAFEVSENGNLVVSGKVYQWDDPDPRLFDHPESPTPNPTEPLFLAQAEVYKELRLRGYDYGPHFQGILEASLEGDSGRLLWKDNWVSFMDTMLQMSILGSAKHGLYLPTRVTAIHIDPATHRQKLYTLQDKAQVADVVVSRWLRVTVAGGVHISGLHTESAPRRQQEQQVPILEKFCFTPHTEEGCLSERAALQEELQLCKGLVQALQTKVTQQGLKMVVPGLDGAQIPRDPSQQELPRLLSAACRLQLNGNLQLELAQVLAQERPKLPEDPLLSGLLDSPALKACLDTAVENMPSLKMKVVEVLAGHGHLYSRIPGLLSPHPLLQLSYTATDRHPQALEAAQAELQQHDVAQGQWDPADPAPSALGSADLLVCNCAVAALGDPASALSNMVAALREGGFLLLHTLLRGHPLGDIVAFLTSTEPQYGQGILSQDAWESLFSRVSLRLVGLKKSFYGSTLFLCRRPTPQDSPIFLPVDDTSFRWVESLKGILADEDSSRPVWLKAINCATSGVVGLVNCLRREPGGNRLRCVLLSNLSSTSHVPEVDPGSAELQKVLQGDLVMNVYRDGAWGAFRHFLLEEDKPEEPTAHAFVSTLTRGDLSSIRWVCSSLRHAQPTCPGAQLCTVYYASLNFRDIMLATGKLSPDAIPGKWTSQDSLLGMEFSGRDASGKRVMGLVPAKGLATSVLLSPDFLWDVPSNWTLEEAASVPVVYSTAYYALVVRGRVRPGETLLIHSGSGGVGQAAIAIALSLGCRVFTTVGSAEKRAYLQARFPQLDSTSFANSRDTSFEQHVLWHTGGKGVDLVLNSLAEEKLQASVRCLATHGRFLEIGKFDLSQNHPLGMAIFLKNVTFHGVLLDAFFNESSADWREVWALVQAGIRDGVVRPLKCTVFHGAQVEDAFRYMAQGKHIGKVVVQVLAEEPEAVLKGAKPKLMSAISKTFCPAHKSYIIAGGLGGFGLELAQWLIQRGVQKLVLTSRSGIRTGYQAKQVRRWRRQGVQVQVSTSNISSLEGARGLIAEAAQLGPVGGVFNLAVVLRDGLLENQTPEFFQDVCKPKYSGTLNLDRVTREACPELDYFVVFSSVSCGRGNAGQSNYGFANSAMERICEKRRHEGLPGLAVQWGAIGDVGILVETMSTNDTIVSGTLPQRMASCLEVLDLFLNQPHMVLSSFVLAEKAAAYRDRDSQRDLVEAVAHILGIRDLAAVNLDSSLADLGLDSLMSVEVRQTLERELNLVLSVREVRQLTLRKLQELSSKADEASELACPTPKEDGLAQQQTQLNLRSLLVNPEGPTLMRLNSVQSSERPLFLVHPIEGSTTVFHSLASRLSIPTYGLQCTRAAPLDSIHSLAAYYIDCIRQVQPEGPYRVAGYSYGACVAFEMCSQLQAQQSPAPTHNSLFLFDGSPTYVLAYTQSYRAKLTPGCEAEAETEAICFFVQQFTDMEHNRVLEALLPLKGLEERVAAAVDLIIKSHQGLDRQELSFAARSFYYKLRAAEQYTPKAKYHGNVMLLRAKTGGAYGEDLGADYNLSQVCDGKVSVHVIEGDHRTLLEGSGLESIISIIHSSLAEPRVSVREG
# Erk pathway = assay: NIA of ERK isoforms in head and neck squamous cell carcinoma before and after rigosertib; assay type: in vivo, human; conditions: one head and neck cancer patient; pre- vs post-treatment; FIG. 32
# Description: Patients receive 2 cycles of 2 weeks of treatment with 1 week off regimen. For Cycle 1, Day 14 only, 5 patients with HNSCC will undergo biopsy or FNA for nano-proteomic profiling of total- and phospho-proteins in pathways inhibited by rigosertib, ERK and loading control. For Cycle 1 Day 14 and Cycle 2 Day 14, pharmacokinetic blood analyses are performed. […] A patient with head and neck cancer treated on clinical trial of rigosertib had tumor sampled before (pre-treatment) and after (post-treatment) treatment. NIA was used to measure ERK isforms.
# tumor burden = assay: Tumor burden in patients on clinical trial of atorvastatin; assay type: in vivo, human; conditions: eight days of treatment
# MEK1 phospho-isoforms = assay: NIA of MEK isoforms in NHL patients before and after atorvastatin; assay type: in vivo, human
# Description: Nine patients were treated on clinical trial of HMG co-A reductase inhibitor atorvastatin. NIA was used to measure changes in MEK isoforms before (day 1) and after eight days of treatment.
# Nine patients were treated on clinical trial of HMG co-A reductase inhibitor atorvastatin. NIA was used to measure changes in MEK isoforms before (day 1) and after 8 days of treatment.
molecule,measurement,setting,value
C/C=C/C/C=C/CCC(=O)[C@H]1O[C@H]1C(N)=O [Cerulenin],Cell proliferation,A549,decreased proliferation
same,Cell proliferation,H1299,decreased proliferation
"CC(C)=CCC/C(C)=C/CC/C(C)=C/CSc1ccccc1C(=O)O [FTS, S-trans,trans-farnesylthiosalicylic acid]",Total ERK1/2 level,ERK1/2 phospho-isoforms; FNA after 4 days of treatment,did not change
same,Phospho-ERK isoforms,ERK1/2 phospho-isoforms; FNA on day 4 of treatment,all phospho-ERK isoforms decreased
same,Gene expression of FASN and SCD upon KRAS inhibition,"[1]; human lung cancer cell line, FTS at 5-20 ng/mL, FIG. 5B",decreased the gene expression of FASN and SCD in a dose-dependent manner
same,Decrease of ERK1/2 phosphorylation,ERK1/2 phosphorylation,35%
same,Tumor growth inhibition,BCL2-induced lymphoma,inhibits tumor growth more effectively than inactivating either oncogene alone
C=C1C(=O)OC(CCCCCCCC)C1C(=O)O (centres unmarked) [C75],FASN inhibitory potency,FASN,"weak, irreversible inhibitor"
epigallocatechin-3-gallate [EGCG],FASN inhibitory potency,FASN,high micromolar
COc1cc(OC)c(/C=C/S(=O)(=O)Cc2ccc(OC)c(NCC(=O)O)c2)c(OC)c1 [Rigosertib],Erk pathway activity (ERK isoforms by NIA),Erk pathway,decreases Erk pathway
O=C(Nc1ccc2[nH]nc(-c3ccncc3)c2c1)[C@@H]1CCN(CC(=O)N2CCN(c3ccc(-c4ncccn4)cc3)CC2)C1 [SCH772984],Relative mRNA expression of FASN and SCD upon ERK inhibition,"[1]; A549 and H1299 cells, SCH772984 at 125 ng/mL, FIG. 5A",suppression of FASN and SCD
CC(C)c1c(C(=O)Nc2ccccc2)c(-c2ccccc2)c(-c2ccc(F)cc2)n1CC[C@@H](O)C[C@@H](O)CC(=O)O [atorvastatin],Tumor burden,tumor burden; patient A,tumor burden decreased
same,Tumor burden,tumor burden; patient B,no change in tumor burden
same,Patients with significant changes in di-phospho-MEK1,"MEK1 phospho-isoforms; day 1 vs after 8 days of treatment, FIG. 27",four of nine
same,Patients with significant changes in tri-phospho-MEK1,"MEK1 phospho-isoforms; day 1 vs after eight days of treatment, FIG. 26",four of nine
same,Patients with significant changes in Mono-phospho-MEK1,"MEK1 phospho-isoforms; day 1 vs after eight days of treatment, FIG. 28",one of nine
Cc1ccnc(NS(=O)(=O)c2ccc(NC(=O)Nc3ccc(S(=O)(=O)Nc4nccc(C)n4)cc3)cc2)n1 [GSK837149A],FASN inhibitory potency,FASN,"low, nanomolar"
